Key:
[1] = system: Axin2 protein in SW480 cells; experiment: Cellular ELISA assay of Axin2 protein stabilization; assay type: cell-based; details: Homo sapiens, 24 hrs, read-out: Axin AC50
Experimental: Cellular ELISA Assay to Determine Compound Effect on Stabilizing the Axin2 Protein Compound activity in stabilizing the Axin2 protein was measured by Sandwich Enzyme-Linked Immuosorbent (ELISA) assay in the colorectal cell line SW480. 30,000 SW480 cells were seeded per well in 96-well plate and incubated overnight prior to compound treatment. […] Cells were then washed with 100 μL of cold Phosphate Buffer Saline (PBS), and lysed in 125 μl of cold 1× lysis buffer (Cell Signaling Technology, 9803) supplemented with Protease inhibitor (Roche, 11836170) and Phosphatase inhibitors (Sigma, P2850, P5726). For the ELISA assay, anti Axin-2 capture antibody (Strategic Diagnostics) antibody was diluted to a concentration of 1 μg/ml (1:1000) in Carbonate Coating buffer, pH 9.2 (Sigma, C3041-50CAP). […], of the diluted anti Axin-2 capture antibody per well was then used to coat the 96-well ELISA plate (Thermo Electron Corp., MicroLite 1 flat bottom plate #7571) overnight at 4° C. […] After blocking, plates were then washed three times with 300 μl/well of wash solution. 100 μL of prepared SW480 cell lysate was then added to each well and incubated at room temperature for 2 hours while shaking gently. After washing, 100 μL of Biotinylated anti-Axin2 antibody (CST, 2151) was added to each well and incubated room temperature for 2 hours. 100 μL of Streptavidin-HRP (R&D systems, DY998) diluted 1:200 in 1% BSA/PBS was then added in each well and incubate for 30 mins at R/T in the dark.

[2] = system: Non-small lung cancer ABC-1 cells; experiment: Cellular proliferation assay (CellTiter-Glo); assay type: cell-based; details: Homo sapiens, 72 h; ABC-1 cells, 3 days of compound treatment; read-out: ABC-1 IC50
Experimental: Cellular Proliferation Assay to Determine Compound Inhibition of Cancer Cell Growth
Viable cells were measured after 3 days of compound treatment using the CellTiter-Glo assay (Promega, G7570). Assay was performed following the manufacture protocol.

[3] = molecular target: human tankyrase 1 PARP catalytic domain, TNKS1P (Homo sapiens (Human), UniProt O95271); experiment: TNKS1 autoparsylation assay (LC/MS detection of nicotinamide); details: read-out: TNKS1 AP IC50, 20 nM enzyme, 250 μM β-NAD+, 60 min
[4] = system: Wnt ligand-induced signaling in HEK293 cells; experiment: Wnt-responsive Super-TOpFlash (STF) luciferase reporter gene assay; assay type: cell-based; details: Homo sapiens, Wnt3A condition medium
Experimental: Cellular Reporter Gene Assay to Determine Compound Inhibition of Wnt Signaling Activity
Compound activity in inhibiting Wnt ligand-induced signaling was measured using a Wnt-responsive Super-TOpFlash (STF) luciferase reporter gene assay in HEK293 cells. On day 1 of the assay, cells were plated at a density of 8000 cells per well of 384-well plate in 25 μl medium containing 5% fetal bovine serum (FBS). On the second day, […] condition medium (CM) produced from mouse L cells was added to the cells to induce Wnt signaling, followed by addition of 5 μL of compounds each well in 10-point serial dilution. On the third day, the luciferase activity was measured by the Bright-Glo™ Luciferase Assay System following manufacture's protocol (Promega, E2620). The Inhibition was calculated as: (Maximum Wnt-induced signaling−Sample)/(Maximum Wnt-induced signaling−Background)*100. “Maximum Wnt-induced signaling” is the STF signal level induced by 20% Wnt3A CM without compound; and “Background” is the STF signal level without the addition of Wnt3A CM or compound.

[5] = molecular target: tankyrase 2 protein PARP domain, TNKS2P (Homo sapiens (Human), UniProt Q9H2K2); experiment: TNKS2 autoparsylation assay (LC/MS detection of nicotinamide); details: read-out: TNKS2 AP IC50, 20 nM enzyme, 250 μM β-NAD+, 60 min
Sequence of tankyrase 2 protein PARP domain, TNKS2P (Q9H2K2 959-1164): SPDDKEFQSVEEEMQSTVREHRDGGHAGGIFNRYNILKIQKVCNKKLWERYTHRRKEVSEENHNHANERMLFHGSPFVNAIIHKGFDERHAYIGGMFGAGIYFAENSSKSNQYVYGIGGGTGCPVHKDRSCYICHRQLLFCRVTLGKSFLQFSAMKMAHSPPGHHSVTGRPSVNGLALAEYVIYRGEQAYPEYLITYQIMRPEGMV
Experimental: Biochemical Assay to Determine Compound Inhibition of TNKS Enzyme Activity
The autoparsylation activity of the TNKS 1/2 or PARP1/2 enzymes was measured by the liquid chromatography-mass spectrometry (LC/MS) detection of nicotinamide as readout. Compound activity in inhibiting the TNKS and PARP autoparsylation was evaluated by IC50 measurements. […] For the background control wells, 10 μL of the 5× quenching solution per well was added prior to the addition of β-NAD^+. The % Inhibition was calculated as: (Control−Sample)/(Control−Background)*100.

Sequence of human tankyrase 1 PARP catalytic domain, TNKS1P (O95271 1112-1317): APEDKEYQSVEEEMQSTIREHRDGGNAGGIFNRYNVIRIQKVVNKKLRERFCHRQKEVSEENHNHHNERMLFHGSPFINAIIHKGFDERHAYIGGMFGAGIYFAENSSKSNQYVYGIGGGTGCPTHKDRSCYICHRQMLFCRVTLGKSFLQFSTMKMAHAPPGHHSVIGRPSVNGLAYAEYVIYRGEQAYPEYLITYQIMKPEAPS

SMILES | AC50 [1] [nM] | IC50 [2] [nM] | IC50 [3] [nM] | IC50 [4] [nM] | IC50 [5] [nM]
O=C(CN1CCC(C(=O)c2ccc(F)cc2)CC1)NCc1nc2c(c(=O)[nH]1)COCC2 [Example 1, 2-(4-(4-Fluorobenzoyl)piperidin-1-yl)-N-((4-oxo-4,5,7,8-tetrahydro-3H-pyrano[4,3-d]pyrimidin-2-yl)methyl)acetamide] | 880 ± 210 | 1050 ± 390 | 64 ± 8 | – | –
COc1ccc(C(=O)C2CCN(CC(=O)N(Cc3nc4c(c(=O)[nH]3)COCC4)CC3CC3)CC2)cc1 [Example 5, N-Cyclopropylmethyl-2-[4-(4-methoxy-benzoyl)-piperidin-1-yl]-N-(4-oxo-3,5,7,8-tetrahydro-4H-pyrano[4,3-d]pyrimidin-2-ylmethyl)-acetamide] | 60 ± 60 | 32 ± 4 | 15.5 ± 3.5 | – | –
O=C(c1ccc(F)cc1)C1CCN(CC(=O)N(Cc2nc3c(c(=O)[nH]2)COCC3)Cc2cccs2)CC1 [Example 13, 2-(4-(4-Fluorobenzoyl)piperidin-1-yl)-N-((4-oxo-4,5,7,8-tetrahydro-3H-pyrano[4,3-d]pyrimidin-2-yl)methyl)-N-(thiophen-2-ylmethyl)acetamide] | 26 ± 8 | 40 | 15.4 ± 2.3 | – | –
O=C(c1ccc(F)cc1)C1CCN(CC(=O)N(Cc2ccncc2)Cc2nc3c(c(=O)[nH]2)COCC3)CC1 [Example 20, 2-(4-(4-Fluorobenzoyl)piperidin-1-yl)-N-((4-oxo-4,5,7,8-tetrahydro-3H-pyrano[4,3-d]pyrimidin-2-yl)methyl)-N-(pyridin-4-ylmethyl)acetamide] | – | – | 845 ± 12 | 2390 ± 250 | 206 ± 2
O=C(c1ccc(F)cc1)C1CCN(CC(=O)N(Cc2cccnc2)Cc2nc3c(c(=O)[nH]2)COCC3)CC1 [Example 21, 2-(4-(4-Fluorobenzoyl)piperidin-1-yl)-N-((4-oxo-4,5,7,8-tetrahydro-3H-pyrano[4,3-d]pyrimidin-2-yl)methyl)-N-(pyridin-3-ylmethyl)acetamide] | – | – | 214 ± 2 | 460 ± 280 | 42 ± 1
O=C(c1ccc(F)cc1)C1CCN(CC(=O)N(Cc2ccccn2)Cc2nc3c(c(=O)[nH]2)COCC3)CC1 [Example 22, 2-(4-(4-Fluorobenzoyl)piperidin-1-yl)-N-((4-oxo-4,5,7,8-tetrahydro-3H-pyrano[4,3-d]pyrimidin-2-yl)methyl)-N-(pyridin-2-ylmethyl)acetamide] | 360 ± 190 | 540 ± 280 | 120 ± 2 | – | –
CC(C)CN(Cc1nc2c(c(=O)[nH]1)COCC2)C(=O)CN1CCC(C(=O)c2ccc(F)cc2)CC1 [Example 26, 2-(4-(4-Fluorobenzoyl)piperidin-1-yl)-N-isobutyl-N-((4-oxo-4,5,7,8-tetrahydro-3H-pyrano[4,3-d]pyrimidin-2-yl)methyl)acetamide] | 473 ± 36 | 545 | 70 ± 7 | – | –
CN(Cc1nc2c(c(=O)[nH]1)COCC2)C(=O)CN1CCC(C(=O)c2ccc(F)cc2)CC1 [Example 30] | 6000 ± 500 | – | 241 ± 30 | – | –
CCCN(Cc1nc2c(c(=O)[nH]1)COCC2)C(=O)CN1CCC(C(=O)c2ccc(F)cc2)CC1 [Example 34, 2-(4-(4-Fluorobenzoyl)piperidin-1-yl)-N-((4-oxo-4,5,7,8-tetrahydro-3H-pyrano[4,3-d]pyrimidin-2-yl)methyl)-N-propylacetamide] | 1010 ± 70 | – | 46 ± 1 | – | –
C[C@@H](c1ccc(F)cc1)N(Cc1nc2c(c(=O)[nH]1)COCC2)C(=O)CN1CCC(C(=O)c2ccc(F)cc2)CC1 [Example 35, (S)-2-(4-(4-Fluorobenzoyl)piperidin-1-yl)-N-(1-(4-fluorophenyl)ethyl)-N-((4-oxo-4,5,7,8-tetrahydro-3H-pyrano[4,3-d]pyrimidin-2-yl)methyl)acetamide] | – | – | 256 ± 4 | 179 ± 20 | 68 ± 1
O=C(c1ccc(F)cc1)C1CCN(CC(=O)N(Cc2nc3c(c(=O)[nH]2)COCC3)Cc2ccc(S(=O)(=O)N3CCOCC3)s2)CC1 [Example 47, 2-[4-(4-Fluoro-benzoyl)-piperidin-1-yl]-N-[5-(morpholine-4-sulfonyl)-thiophen-2-ylmethyl]-N-(4-oxo-3,5,7,8-tetrahydro-4H-pyrano[4,3-d]pyrimidin-2-ylmethyl)-acetamide] | 5000 ± 2300 | – | 561 ± 49 | 1830 ± 390 | 66 ± 2
COc1ccc(-c2nnc(C3CCN(CC(=O)NCc4nc5c(c(=O)[nH]4)COCC5)CC3)o2)cc1 [Example 56, 2-{4-[5-(4-Methoxy-phenyl)-[1,3,4]oxadiazol-2-yl]-piperidin-1-yl}-N-(4-oxo-3,5,7,8-tetrahydro-4H-pyrano[4,3-d]pyrimidin-2-ylmethyl)-acetamide] | – | 641 | 548 ± 39 | 207 ± 21 | 89 ± 3
O=C(CN1CCC(c2n[nH]c3cc(F)ccc23)CC1)NCc1nc2c(c(=O)[nH]1)COCC2 [Example 57, 2-[4-(6-Fluoro-1H-indazol-3-yl)-piperidin-1-yl]-N-(4-oxo-3,5,7,8-tetrahydro-4H-pyrano[4,3-d]pyrimidin-2-ylmethyl)acetamide] | – | 649 | 1210 ± 100 | 207 ± 35 | 270 ± 10
COc1ccc2c(C3CCN(CC(=O)NCc4nc5c(c(=O)[nH]4)COCC5)CC3)n[nH]c2c1 [Example 58, 2-[4-(6-Methoxy-1H-indazol-3-yl)-piperidin-1-yl]-N-(4-oxo-3,5,7,8-tetrahydro-4H-pyrano[4,3-c]pyrimidin-2-ylmethyl)-acetamide] | – | > 10000 | 1490 ± 50 | 4500 ± 400 | 311 ± 39
O=C(CN1CCC(n2cc(-c3ccccc3)cn2)CC1)NCc1nc2c(c(=O)[nH]1)COCC2 [Example 59, N-(4-Oxo-3,5,7,8-tetrahydro-4H-pyrano[4,3-d]pyrimidin-2-ylmethyl)-2-[4-(4-phenyl-pyrazol-1-yl)-piperidin-1-yl]-acetamide] | – | 8170 | 2250 ± 23 | 3940 ± 120 | 188 ± 16
COc1ccc(-c2cnn(C3CCN(CC(=O)NCc4nc5c(c(=O)[nH]4)COCC5)CC3)c2)cc1 [Example 60, 2-{4-[4-(4-Methoxy-phenyl)-pyrazol-1-yl]-piperidin-1-yl}-N-(4-oxo-3,5,7,8-tetrahydro-4H-pyrano[4,3-d]pyrimidin-2-ylmethyl)-acetamide] | – | 5850 | 3800 ± 100 | 1100 ± 110 | 386 ± 7
O=C(c1ccc(C(F)(F)F)cc1)C1CCN(CC(=O)N(Cc2nc3c(c(=O)[nH]2)COCC3)CC(F)F)CC1 [Example 75, N-(2,2-Difluoro-ethyl)-N-(4-oxo-3,5,7,8-tetrahydro-4H-pyrano[4,3-d]pyrimidin-2-ylmethyl)-2-[4-(4-trifluoromethyl-benzoyl)-piperidin-1-yl]-acetamide] | – | 6050 | 73 ± 5 | 290 ± 130 | 17 ± 1
COc1ccc2c(c1)CCCN2C(=O)C1CCN(CC(=O)NCc2nc3c(c(=O)[nH]2)COCC3)CC1 [Example 80, 2-(4-(6-Methoxy-1,2,3,4-tetrahydroquinoline-1-carbonyl)piperidin-1-yl)-N-((4-oxo-4,5,7,8-tetrahydro-3H-pyrano[4,3-d]pyrimidin-2-yl)methyl)acetamide] | – | – | > 19000 | 6400 ± 1100 | 31200
O=C(CN1CCC(C(=O)N2CCc3c(Cl)cccc3C2)CC1)NCc1nc2c(c(=O)[nH]1)COCC2 [Example 81, 2-(4-(5-Chloro-1,2,3,4-tetrahydroisoquinoline-2-carbonyl)piperidin-1-yl)-N-((4-oxo-4,5,7,8-tetrahydro-3H-pyrano[4,3-d]pyrimidin-2-yl)methyl)acetamide] | – | – | 761 ± 18 | > 10000 | 244 ± 24
